Experimental data: patent US8076338B2, “Kinase modulators and methods of use” (Exelixis, Inc., priority 2004, dated 2011)
Read-outs that look alike come from different tables or passages of the source.

What was measured:
AktK = AktK (Homo sapiens, UniProt P31749); assay: Luciferase-coupled chemiluminescence kinase assay (ATP consumption); type: biochemical; details: read-out: AKT-1 IC50
How it was run: (§1)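 Enzyme at 2.5-5 nM was preincubated 30 min at room temperature with compound in Tris pH 7.5, MgCl2, TX-100, DTT, then reacted with ATP for 3 h at ambient temperature. Remaining ATP was quantified by luciferase-luciferin chemiluminescence, with consumption kept at 25-60%; […].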

p70S6K = p70S6K (Homo sapiens, UniProt P23443); assay: as above; type: biochemical
How it was run: as §1

p70S6K, sequence (P23443 whole entry): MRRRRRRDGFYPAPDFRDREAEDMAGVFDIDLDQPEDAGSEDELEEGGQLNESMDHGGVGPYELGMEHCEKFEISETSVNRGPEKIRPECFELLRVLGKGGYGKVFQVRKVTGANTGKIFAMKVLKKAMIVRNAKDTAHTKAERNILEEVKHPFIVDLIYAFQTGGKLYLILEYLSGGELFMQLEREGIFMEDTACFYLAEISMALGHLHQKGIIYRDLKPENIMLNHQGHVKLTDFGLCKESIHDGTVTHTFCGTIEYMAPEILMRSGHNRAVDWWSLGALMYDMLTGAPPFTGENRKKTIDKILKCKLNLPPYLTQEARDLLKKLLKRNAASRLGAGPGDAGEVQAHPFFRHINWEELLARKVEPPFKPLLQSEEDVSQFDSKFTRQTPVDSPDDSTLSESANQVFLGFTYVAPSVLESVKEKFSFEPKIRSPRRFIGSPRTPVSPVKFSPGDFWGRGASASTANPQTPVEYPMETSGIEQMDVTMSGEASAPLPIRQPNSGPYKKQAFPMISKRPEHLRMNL
AktK, sequence (P31749 whole entry): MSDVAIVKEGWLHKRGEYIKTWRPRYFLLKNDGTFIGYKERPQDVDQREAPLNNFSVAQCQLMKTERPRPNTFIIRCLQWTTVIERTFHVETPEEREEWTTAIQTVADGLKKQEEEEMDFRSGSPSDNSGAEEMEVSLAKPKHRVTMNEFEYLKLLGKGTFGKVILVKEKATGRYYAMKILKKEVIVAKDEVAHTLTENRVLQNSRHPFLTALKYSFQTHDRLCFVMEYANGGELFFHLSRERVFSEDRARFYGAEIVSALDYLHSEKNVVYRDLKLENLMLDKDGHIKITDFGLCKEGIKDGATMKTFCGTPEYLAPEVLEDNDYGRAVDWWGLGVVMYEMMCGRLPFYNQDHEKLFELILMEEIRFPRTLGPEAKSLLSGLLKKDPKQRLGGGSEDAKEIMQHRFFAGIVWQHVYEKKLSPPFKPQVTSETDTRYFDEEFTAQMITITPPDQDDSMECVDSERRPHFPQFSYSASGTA

Compound	IC50 (AktK; Table 1, class symbols per key)	IC50 (p70S6K; Table 1, class symbols per key)	IC50 (AktK)	IC50 (p70S6K)
Cc1ccc(C(=O)Nc2ccccc2)cc1N1CCN(c2ncnc3[nH]nc(Br)c23)CC1 [Entry 187, 3-[4-(3-bromo-1H-pyrazolo[3,4-d]pyrimidin-4-yl)piperazin-1-yl]-4-methyl-N-phenylbenzamide]	< 100 nM	< 100 nM	–	–
Cc1ccc(C(=O)O)cc1N1CCN(c2ncnc3[nH]nc(Br)c23)CC1 [Entry 180, 3-[4-(3-bromo-1H-pyrazolo[3,4-d]pyrimidin-4-yl)piperazin-1-yl]-4-methylbenzoic acid]	100 to 1000 nM	< 100 nM	–	–
CCc1n[nH]c2ncnc(N3CCN(c4cc(Cl)cc(CCCN5CCCC5)c4C)CC3)c12 [Entry 403, 4-{4-[5-chloro-2-methyl-3-(3-pyrrolidin-1-ylpropyl)phenyl]piperazin-1-yl}-3-ethyl-1H-pyrazolo[3,4-d]pyrimidine]	–	–	100 to 1000 nM	< 100 nM
CCc1n[nH]c2ncnc(N3CCN(c4cc(Cl)cc(OCCCN5CCOCC5)c4C)CC3)c12 [Entry 26, 4-(4-{5-chloro-2-methyl-3-[(3-morpholin-4-ylpropyl)oxy]phenyl}piperazin-1-yl)-3-ethyl-1H-pyrazolo[3,4-d]pyrimidine]	1000 to 10000 nM	< 100 nM	–	–
Cc1c(NCCN2CCCC2)cc(OCC(F)(CF)CF)cc1N1CCN(c2ncnc3[nH]nc(Br)c23)CC1 [Entry 230, 3-[4-(3-bromo-1H-pyrazolo[3,4-d]pyrimidin-4-yl)piperazin-1-yl]-5-{[2,3-difluoro-2-(fluoro-methyl)propyl]oxy}-2-methyl-N-(2-pyrrolidin-1-ylethyl)aniline]	< 100 nM	< 100 nM	–	–
Cc1c(OCC2CCN(C)CC2)cc(Cl)cc1N1CCN(c2ncnc3[nH]nc(C(F)(F)F)c23)CC1 [Entry 90, 4-[4-(5-chloro-2-methyl-3-{[(1-methylpiperidin-4-yl)methyl]oxy}phenyl)piperazin-1-yl]-3-(trifluoro-methyl)-1H-pyrazolo[3,4-d]pyrimidine]	100 to 1000 nM	< 100 nM	–	–
Cc1ccc(Cl)cc1N1CCN(c2ncnc3[nH]nc(C4=CCNCC4)c23)CC1 [Entry 401, 4-[4-(5-chloro-2-methylphenyl)piperazin-1-yl]-3-(1,2,3,6-tetrahydropyridin-4-yl)-1H-pyrazolo[3,4-d]pyrimidine]	–	–	1000 to 10000 nM	< 100 nM
Cc1c(OCCN2CCN(C)CC2)cc(Cl)cc1N1CCN(c2ncnc3[nH]nc(C(F)(F)F)c23)CC1 [Entry 73, 4-[4-(5-chloro-2-methyl-3-{[2-(4-methylpiperazin-1-yl)ethyl]oxy}phenyl)piperazin-1-yl]-3-(trifluoromethyl)-1H-pyrazolo[3,4-d]pyrimidine]	100 to 1000 nM	< 100 nM	–	–
Brc1n[nH]c2ncnc(N3CCN(c4ccc(OCc5ccccc5)cc4)CC3)c12 [Entry 125, 3-bromo-4-(4-{4-[(phenylmethyl)oxy]phenyl}piperazin-1-yl)-1H-pyrazolo[3,4-d]pyrimidine]	≥ 10000 nM	100 to 1000 nM	–	–
Cc1c(OCCCN2CCOCC2)cc(Cl)cc1N1CCN(c2ncnc3[nH]nc(C(F)(F)F)c23)CC1 [Entry 40, 4-(4-{5-chloro-2-methyl-3-[(3-morpholin-4-ylpropyl)oxy]phenyl}piperazin-1-yl)-3-(trifluoromethyl)-1H-pyrazolo[3,4-d]pyrimidine]	1000 to 10000 nM	< 100 nM	–	–
Clc1ccc(-c2ccccc2OCCN2CCCC2)cc1N1CCN(c2ncnc3[nH]nc(Br)c23)CC1 [Entry 287, 3-bromo-4-(4-{4-chloro-2′-[(2-pyrrolidin-1-ylethyl)oxy]biphenyl-3-yl}piperazin-1-yl)-1H-pyrazolo[3,4-d]pyrimidine]	< 100 nM	< 100 nM	–	–
CCc1n[nH]c2ncnc(N3CCN(c4cc(Cl)cc(C(=O)N5CCN(C)CC5)c4OC)CC3)c12 [Entry 375, 4-(4-{5-chloro-2-(methyloxy)-3-[(4-methylpipera-zin-1-yl)carbonyl]phenyl}piperazin-1-yl)-3-ethyl-1H-pyrazolo[3,4-d]pyrimidine]	–	–	≥ 10000 nM	100 to 1000 nM
Cc1ccc(C(=O)N(C)C)cc1N1CCN(c2ncnc3[nH]nc(Br)c23)CC1 [Entry 196, 3-[4-(3-bromo-1H-pyrazolo[3,4-d]pyrimidin-4-yl)piperazin-1-yl]-N,N,4-trimethylbenzamide]	100 to 1000 nM	< 100 nM	–	–
Cc1c(NCCN2CCCC2)cc(C(=O)O)cc1N1CCN(c2ncnc3[nH]nc(Br)c23)CC1 [Entry 234, 3-[4-(3-bromo-1H-pyrazolo[3,4-d]pyrimidin-4-yl)piperazin-1-yl]-4-methyl-5-[(2-pyrrolidin-1-ylethyl)amino]benzoic acid]	1000 to 10000 nM	< 100 nM	–	–
O=C1COc2ccc(-c3ccnc(N4CCN(c5ncnc6[nH]nc(Br)c56)CC4)n3)cc2N1 [Entry 144, 6-{2-[4-(3-bromo-1H-pyrazolo[3,4-d]pyrimidin-4-yl)piperazin-1-yl]pyrimidin-4-yl}-2H-1,4-benzoxazin-3(4H)-one]	1000 to 10000 nM	1000 to 10000 nM	–	–
3-bromo-4-(4-{4-methyl-2′-[(2-pyrrolidin-1-ylethyl)oxy]biphenyl-3-yl}piperazin-1-yl)-1H-pyrazolo[3,4-d]pyrimidine [Entry 269]	< 100 nM	< 100 nM	–	–

Compound	IC50 (AktK; Table 1, class symbols per key)	IC50 (p70S6K; Table 1, class symbols per key)	IC50 (AktK)	IC50 (p70S6K)
Cc1ccc(C(=O)NCC(C)C)cc1N1CCN(c2ncnc3[nH]nc(Cl)c23)CC1 [Entry 197, 3-[4-(3-chloro-1H-pyrazolo[3,4-d]pyrimidin-4-yl)piperazin-1-yl]-4-methyl-N-(2-methylpropyl)benzamide]	1000 to 10000 nM	< 100 nM	–	–
CCOC(=O)c1cnc(C(F)(F)F)nc1N1CCN(c2ncnc3[nH]nc(CC)c23)CC1 [Entry 112, ethyl 4-[4-(3-ethyl-1H-pyrazolo[3,4-d]pyrimidin-4-yl)piperazin-1-yl]-2-(trifluoromethyl)pyrimidine-5-carboxylate]	≥ 10000 nM	1000 to 10000 nM	–	–
Cc1c(NCCN2CCCC2)cc(Br)cc1N1CCN(c2ncnc3[nH]nc(Br)c23)CC1 [Entry 271, 5-bromo-3-[4-(3-bromo-1H-pyrazolo[3,4-d]pyrimidin-4-yl)piperazin-1-yl]-2-methyl-N-(2-pyrrolidin-1-ylethyl)aniline]	< 100 nM	< 100 nM	–	–
Cc1c(NCCN2CCCC2)cc(OCCC(F)(F)F)cc1N1CCN(c2ncnc3[nH]nc(Br)c23)CC1 [Entry 284, 3-[4-(3-bromo-1H-pyrazolo[3,4-d]pyrimidin-4-yl)piperazin-1-yl]-2-methyl-N-(2-pyrrolidin-1-ylethyl)-5-[(3,3,3-trifluoropropyl)oxy]aniline]	< 100 nM	< 100 nM	–	–
CCc1n[nH]c2ncnc(N3CCN(c4cc(C(=O)Nc5ccccc5)cc(Br)c4C)CC3)c12 [Entry 192, 3-bromo-5-[4-(3-ethyl-1H-pyrazolo[3,4-d]pyrimidin-4-yl)piperazin-1-yl]-4-methyl-N-phenylbenzamide]	100 to 1000 nM	< 100 nM	–	–
Cc1c(NCCN2CCCC2)cc(C(=O)CCC(F)(F)F)cc1N1CCN(c2ncnc3[nH]nc(Br)c23)CC1 [Entry 274, 1-{3-[4-(3-bromo-1H-pyrazolo[3,4-d]pyrimidin-4-yl)piperazin-1-yl]-4-methyl-5-[(2-pyrrolidin-1-ylethyl)amino]phenyl}-4,4,4-trifluorobutan-1-one]	< 100 nM	< 100 nM	–	–
CCc1n[nH]c2ncnc(N3CCN(c4cc(Cl)cc(OCCN(CC)CC)c4)CC3)c12 [Entry 170, 2-({3-chloro-5-[4-(3-ethyl-1H-pyrazolo[3,4-d]pyrimidin-4-yl)piperazin-1-yl]phenyl}oxy)-N,N-diethylethanamine]	≥ 10000 nM	100 to 1000 nM	–	–
3-[4-(3-bromo-1H-pyrazolo[3,4-d]pyrimidin-4-yl)piperazin-1-yl]-5-(butyloxy)-2-methyl-N-(2-pyrrolidin-1-ylethyl)aniline [Entry 208]	< 100 nM	< 100 nM	–	–
3-[4-(3-bromo-1H-pyrazolo[3,4-d]pyrimidin-4-yl)piperazin-1-yl]-5-{[(difluoromethyl)oxy]meth-yl}-2-methyl-N-(2-pyrrolidin-1-ylethyl)aniline [Entry 254]	< 100 nM	< 100 nM	–	–
O=C(COc1cccc(N2CCN(c3ncnc4[nH]nc(Br)c34)CC2)c1)NC1CC1 [Entry 166, 2-({3-[4-(3-bromo-1H-pyrazolo[3,4-d]pyrimidin-4-yl)piperazin-1-yl]phenyl}oxy)-N-cyclopropylacetamide]	1000 to 10000 nM	< 100 nM	–	–
CCc1n[nH]c2ncnc(N3CCN(c4cccc(Cl)c4)C(C(=O)NC4CCN(C)CC4)C3)c12 (centres unmarked) [Entry 382, 1-(3-chlorophenyl)-4-(3-ethyl-1H-pyrazolo[3,4-d]pyrimidin-4-yl)-N-(1-methylpiperidin-4-yl)piperazine-2-carboxamide]	–	–	≥ 10000 nM	1000 to 10000 nM
CCc1n[nH]c2ncnc(N3CCN(c4cc(Cl)cc(NCCN(C)CC)c4C)CC3)c12 [Entry 147, N′-{5-chloro-3-[4-(3-ethyl-1H-pyrazolo[3,4-d]pyrimidin-4-yl)piperazin-1-yl]-2-methylphenyl}-N-ethyl-N-methylethane-1,2-diamine]	100 to 1000 nM	< 100 nM	–	–
Cc1cccc(COc2cccc(N3CCN(c4ncnc5[nH]nc(Br)c45)CC3)c2)c1 [Entry 141, 3-bromo-4-[4-(3-{[(3-methylphenyl)methyl]oxy}phenyl)piperazin-1-yl]-1H-pyrazolo[3,4-d]pyrimidine]	≥ 10000 nM	100 to 1000 nM	–	–
FC(F)(F)c1cccc(N2CCN(c3ncnc4[nH]nc(Br)c34)CC2)c1 [Entry 155, 3-bromo-4-{4-[3-(trifluoromethyl)phenyl]piperazin-1-yl}-1H-pyrazolo[3,4-d]pyrimidine]	≥ 10000 nM	< 100 nM	–	–
Cc1c(OCCCN2CCCCC2)cc(Cl)cc1N1CCN(c2ncnc3[nH]nc(C(F)(F)F)c23)CC1 [Entry 69, 4-(4-{5-chloro-2-methyl-3-[(3-piperidin-1-ylpropyl)oxy]phenyl}piperazin-1-yl)-3-(trifluoromethyl)-1H-pyrazolo[3,4-d]pyrimidine]	100 to 1000 nM	< 100 nM	–	–
